Data taken from patent US4684664A, “Derivatives of β-(4-isocyano-1,2,3,4-diepoxycyclopentyl) acrylic acid” (Kureha Kagaku Kogyo Kabushiki Kaisha, priority 1984, dated 1987).
≈ marks a conversion by molar mass, not a printed value.

Tests used:
Assay type in all cases: cell-based
[1] = test system: Staphylococcus aureus FDA 209PJc-1; assay: Antibacterial activity, agar-dilution MIC, organism No. 1; conditions: Staphylococcus aureus, FDA209PJC1; Organism No. 1, bouillon-agar; read-out: Minimum Inhibitory Concentration
Summary of the method: (§1)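 Agar dilution, bouillon-agar plates; MIC reported in μg/ml of medium.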

[2] = test system: Staphylococcus aureus Terajima; assay: Antibacterial activity, agar-dilution MIC, organism No. 2; conditions: Staphylococcus aureus; Organism No. 2, bouillon-agar; read-out: Minimum Inhibitory Concentration
Summary of the method: as §1

[3] = test system: Staphylococcus aureus MS 353; assay: Antibacterial activity, agar-dilution MIC, organism No. 3; conditions: Staphylococcus aureus, MS353; Organism No. 3, bouillon-agar; read-out: Minimum Inhibitory Concentration
Summary of the method: as §1

[4] = test system: Streptococcus pyogenes Cook; assay: Antibacterial activity, agar-dilution MIC, organism No. 4; conditions: Streptococcus pyogenes; Organism No. 4, bouillon-agar; read-out: Minimum Inhibitory Concentration
Summary of the method: as §1

[5] = test system: Escherichia coli NIHJ-JC-2; assay: Antibacterial activity, agar-dilution MIC, organism No. 5; conditions: Escherichia coli, NIHJJC2; Organism No. 5, bouillon-agar; read-out: Minimum Inhibitory Concentration
Summary of the method: as §1

[6] = test system: Escherichia coli K12 C600 IAM 1264; assay: Antibacterial activity, agar-dilution MIC, organism No. 6; conditions: Escherichia coli, IAM1264; Organism No. 6, bouillon-agar; read-out: Minimum Inhibitory Concentration
Summary of the method: as §1

[7] = test system: Klebsiella pneumoniae PCI-602; assay: Antibacterial activity, agar-dilution MIC, organism No. 7; conditions: Klebsiella pneumoniae, PCI602; Organism No. 7, bouillon-agar; read-out: Minimum Inhibitory Concentration
Summary of the method: as §1

[8] = test system: Salmonella typhimurium IID 971; assay: Antibacterial activity, agar-dilution MIC, organism No. 8; conditions: Salmonella enterica; Organism No. 8, bouillon-agar; read-out: Minimum Inhibitory Concentration
Summary of the method: as §1

Salmonella typhi 901 = assay: Antibacterial activity, agar-dilution MIC, organism No. 9; conditions: Salmonella enterica, TYPHI, read-out: Minimum Inhibitory Concentration
Summary of the method: as §1

[9] = test system: Salmonella paratyphi-A 1015; assay: Antibacterial activity, agar-dilution MIC, organism No. 10; conditions: Salmonella enterica, PARATYPHI, read-out: Minimum Inhibitory Concentration
Summary of the method: as §1

[10] = test system: Salmonella shottmuelleri 8006; assay: Antibacterial activity, agar-dilution MIC, organism No. 11; conditions: Salmonella, 8006; Organism No. 11, bouillon-agar; read-out: Minimum Inhibitory Concentration
Summary of the method: as §1

[11] = test system: Salmonella enteritidis G 14; assay: Antibacterial activity, agar-dilution MIC, organism No. 12; conditions: Salmonella enterica, ENTERITIDIS; Organism No. 12, bouillon-agar; read-out: Minimum Inhibitory Concentration
Summary of the method: as §1

[12] = test system: Serratia marcescens IAM 1184; assay: Antibacterial activity, agar-dilution MIC, organism No. 13; conditions: Serratia marcescens, IAM1184; Organism No. 13, bouillon-agar; read-out: Minimum Inhibitory Concentration
Summary of the method: as §1

[13] = test system: Bacillus subtilis ATCC 6633; assay: Antibacterial activity, agar-dilution MIC, organism No. 14; conditions: Bacillus subtilis, ATCC6633; Organism No. 14, bouillon-agar; read-out: Minimum Inhibitory Concentration
Summary of the method: as §1

[14] = test system: Pseudomonas aeruginosa IFO 3445; assay: Antibacterial activity, agar-dilution MIC, organism No. 15; conditions: Pseudomonas aeruginosa, IFO3445; Organism No. 15, bouillon-agar; read-out: Minimum Inhibitory Concentration
Summary of the method: as §1

[15] = test system: Pseudomonas aeruginosa NCTC 10490; assay: Antibacterial activity, agar-dilution MIC, organism No. 16; conditions: Pseudomonas aeruginosa, NCTC10490; Organism No. 16, bouillon-agar; read-out: Minimum Inhibitory Concentration
Summary of the method: as §1

[16] = test system: Pseudomonas aeruginosa PAO 1; assay: Antibacterial activity, agar-dilution MIC, organism No. 17; conditions: Pseudomonas aeruginosa, PAO1; Organism No. 17, bouillon-agar; read-out: Minimum Inhibitory Concentration
Summary of the method: as §1

[17] = test system: Proteus morganii IFO 3848; assay: Antibacterial activity, agar-dilution MIC, organism No. 18; conditions: Morganella morganii, IFO3848; Organism No. 18, bouillon-agar; read-out: Minimum Inhibitory Concentration
Summary of the method: as §1

[18] = test system: Proteus mirabilis IFO 3849; assay: Antibacterial activity, agar-dilution MIC, organism No. 19; conditions: Proteus mirabilis, IFO3849; Organism No. 19, bouillon-agar; read-out: Minimum Inhibitory Concentration
Summary of the method: as §1

Proteus vulgaris OX-19 = assay: Antibacterial activity, agar-dilution MIC, organism No. 20; conditions: Proteus vulgaris, OX19; Organism No. 20, bouillon-agar; read-out: Minimum Inhibitory Concentration
Summary of the method: as §1

Proteus vulgaris HX-19 = assay: Antibacterial activity, agar-dilution MIC, organism No. 21; conditions: Proteus vulgaris, HX19; Organism No. 21, bouillon-agar; read-out: Minimum Inhibitory Concentration
Summary of the method: as §1

[19] = test system: Proteus rettgeri IFO 3850; assay: Antibacterial activity, agar-dilution MIC, organism No. 22; conditions: Providencia rettgeri, IFO3850; Organism No. 22, bouillon-agar; read-out: Minimum Inhibitory Concentration
Summary of the method: as §1

[20] = test system: Enterobacter aerogenes ATCC 13048; assay: Antibacterial activity, agar-dilution MIC, organism No. 23; conditions: Klebsiella aerogenes, ATCC13048; Organism No. 23, bouillon-agar; read-out: Minimum Inhibitory Concentration
Summary of the method: as §1

Enterobacter cloacae 963 = assay: Antibacterial activity, agar-dilution MIC, organism No. 24; conditions: Enterobacter cloacae, 963; Organism No. 24, bouillon-agar; read-out: Minimum Inhibitory Concentration
Summary of the method: as §1

[21] = test system: Micrococcus luteus ATCC 9341; assay: Antibacterial activity, agar-dilution MIC, organism No. 25; conditions: Micrococcus luteus, ATCC9341; Organism No. 25, bouillon-agar; read-out: Minimum Inhibitory Concentration
Summary of the method: as §1

[22] = test system: Streptococcus pyogenes IFO 3340; assay: Antibacterial activity, agar-dilution MIC, organism No. 26; conditions: Streptococcus pyogenes, IFO3340; Organism No. 26, bouillon-agar; read-out: Minimum Inhibitory Concentration
Summary of the method: as §1

[23] = test system: Streptococcus faecium IFO 3826; assay: Antibacterial activity, agar-dilution MIC, organism No. 27; conditions: Enterococcus faecium, IFO3826; Organism No. 27, bouillon-agar; read-out: Minimum Inhibitory Concentration
Summary of the method: as §1

[24] = test system: Mycoplasma pneumoniae IID817; assay: Antimycoplasmal activity, MIC by phenol red colour change, organism No. 28; conditions: Mycoplasma, IID817; Organism No. 28, PPLO broth + 1% glucose, 37° C.; read-out: Minimum Inhibitory Concentration (MIC)
Description: Mycoplasma pneumoniae IID817 was used as the test microorganism in a culture medium prepared by adding 1% of glucose to "PPLO broth (manufactured by Difco Co.) liquid culture medium" at 37° C. with phenol red as an indicator, thereby culturing the test microorganism.

[25] = test system: Candida albicans IAM 4905; assay: Antifungal activity, agar-dilution MIC, organism No. 29; conditions: Candida albicans, IAM4905; Organism No. 29, bouillon-agar; read-out: Minimum Inhibitory Concentration
Summary of the method: as §1

[26] = test system: Aspergillus niger IFO 6342; assay: Antifungal activity, agar-dilution MIC, organism No. 30; conditions: Aspergillus niger, IFO6342; Organism No. 30, bouillon-agar; read-out: Minimum Inhibitory Concentration
Summary of the method: as §1

Row | Structure (SMILES) | MIC [1] [mg/L] | MIC [2] [mg/L] | MIC [3] [mg/L] | MIC [4] [mg/L] | MIC [5] [mg/L] | MIC [6] [mg/L] | MIC [7] [mg/L] | MIC [8] [mg/L] | MIC (Salmonella typhi 901) [mg/L] | MIC [9] [mg/L] | MIC [10] [mg/L] | MIC [11] [mg/L] | MIC [12] [mg/L] | MIC [13] [mg/L] | MIC [14] [mg/L] | MIC [15] [mg/L] | MIC [16] [mg/L] | MIC [17] [mg/L] | MIC [18] [mg/L] | MIC (Proteus vulgaris OX-19) [mg/L] | also measured
1 | [C-]#[N+]C12CC3(/C=C/C(=O)ON4C(=O)CCC4=O)OC3C1O2 (stereo not drawn) [Compound No. 9] | 50 (≈ 172 µM) | 50 (≈ 172 µM) | 50 (≈ 172 µM) | 100 (≈ 345 µM) | 50 (≈ 172 µM) | 50 (≈ 172 µM) | 200 (≈ 689 µM) | 50 (≈ 172 µM) | 50 (≈ 172 µM) | 50 (≈ 172 µM) | 50 (≈ 172 µM) | 50 (≈ 172 µM) | 200 (≈ 689 µM) | 200 (≈ 689 µM) | > 200 | > 200 | > 200 | 50 (≈ 172 µM) | 200 (≈ 689 µM) | 200 (≈ 689 µM) | MIC (Proteus vulgaris HX-19): 25 mg/L (≈ 86.1 µM); MIC [19]: > 200 mg/L; MIC [20]: > 200 mg/L; MIC (Enterobacter cloacae 963): > 200 mg/L; MIC [21]: 25 mg/L (≈ 86.1 µM); MIC [22]: 100 mg/L (≈ 345 µM); MIC [23]: 50 mg/L (≈ 172 µM); MIC [24]: 6.25 mg/L; MIC [25]: > 100 mg/L; MIC [26]: > 100 mg/L
2 | [C-]#[N+]C12CC3(/C=C/C(=O)Nc4ccc(C(=O)c5ccccc5)cc4)OC3C1O2 (stereo not drawn) [compound 79] | 0.39 (≈ 1.05 µM) | 0.78 (≈ 2.09 µM) | 0.39 (≈ 1.05 µM) | 3.13 (≈ 8.41 µM) | > 200 | > 200 | 3.13 (≈ 8.41 µM) | > 200 | 200 (≈ 537 µM) | 3.13 (≈ 8.41 µM) | 6.25 (≈ 16.8 µM) | > 200 | > 200 | 1.56 (≈ 4.19 µM) | > 200 | > 200 | > 200 | 6.25 (≈ 16.8 µM) | > 200 | 1.56 (≈ 4.19 µM) | MIC (Proteus vulgaris HX-19): 1.56 mg/L (≈ 4.19 µM); MIC [19]: > 200 mg/L; MIC [20]: > 200 mg/L; MIC (Enterobacter cloacae 963): > 200 mg/L; MIC [21]: > 200 mg/L; MIC [22]: 0.78 mg/L (≈ 2.09 µM); MIC [23]: 0.78 mg/L (≈ 2.09 µM); MIC [24]: < 0.2 mg/L; MIC [25]: 0.39 mg/L (≈ 1.05 µM); MIC [26]: 3.13 mg/L (≈ 8.41 µM)
3 | [C-]#[N+]C12CC3(/C=C/C(=O)OCC(=O)c4ccc(Br)cc4)OC3C1O2 (stereo not drawn) [Compound No. 4, p-bromophenacylβ-substituted acrylate] | 0.4 (≈ 1.03 µM) | 0.78 (≈ 2 µM) | 1.56 (≈ 4 µM) | 12.5 (≈ 32 µM) | 6.25 (≈ 16 µM) | < 0.05 | 6.25 (≈ 16 µM) | 6.25 (≈ 16 µM) | 3.13 (≈ 8.02 µM) | < 0.05 | < 0.05 | 3.13 (≈ 8.02 µM) | > 100 | 12.5 (≈ 32 µM) | > 100 | > 100 | > 100 | 100 (≈ 256 µM) | > 200 | 0.39 (≈ 1 µM) | MIC (Proteus vulgaris HX-19): 0.39 mg/L (≈ 1 µM); MIC [19]: 100 mg/L (≈ 256 µM); MIC [20]: 100 mg/L (≈ 256 µM); MIC (Enterobacter cloacae 963): 0.2 mg/L (≈ 0.513 µM); MIC [21]: < 0.05 mg/L; MIC [22]: 6.25 mg/L (≈ 16 µM); MIC [23]: 12.5 mg/L (≈ 32 µM); MIC [24]: < 0.05 mg/L; MIC [25]: 1.56 mg/L (≈ 4 µM); MIC [26]: 6.25 mg/L (≈ 16 µM)
4 | [C-]#[N+]C12CC3(/C=C/C(=O)N4CCOCC4)OC3C1O2 (stereo not drawn) [compound 22] | 50 (≈ 191 µM) | 100 (≈ 381 µM) | 50 (≈ 191 µM) | 50 (≈ 191 µM) | 50 (≈ 191 µM) | 50 (≈ 191 µM) | 50 (≈ 191 µM) | 25 (≈ 95.3 µM) | 6.25 (≈ 23.8 µM) | 25 (≈ 95.3 µM) | 25 (≈ 95.3 µM) | 12.5 (≈ 47.7 µM) | > 200 | 200 (≈ 763 µM) | > 200 | > 200 | > 200 | 6.25 (≈ 23.8 µM) | > 200 | 12.5 (≈ 47.7 µM) | MIC (Proteus vulgaris HX-19): 1.56 mg/L (≈ 5.95 µM); MIC [19]: > 200 mg/L; MIC [20]: > 200 mg/L; MIC (Enterobacter cloacae 963): > 200 mg/L; MIC [21]: 0.39 mg/L (≈ 1.49 µM); MIC [22]: 200 mg/L (≈ 763 µM); MIC [23]: > 200 mg/L; MIC [24]: 1.56 mg/L; MIC [25]: 6.25 mg/L (≈ 23.8 µM); MIC [26]: 3.13 mg/L (≈ 11.9 µM)
